Source: patent US20180162862A1 (President and Fellows of Harvard College, priority 2015, published 2018)
≈ marks a conversion by molar mass, not a printed value. Where two headings read alike, the source gives them in different places.

What was measured:
H. influenzae ATCC 49247 = assay: MIC test according to CLSI M7-A9, H. influenzae ATCC 49247; type: cell-based; details: Haemophilus influenzae, ATCC49247; CLSI M7-A9, Haemophilus Test Medium, 24 h
Experimental: MIC Test (H. influenzae ATCC 49247)
Susceptibility testing of H. influenzae ATCC 49247 was performed according to Clinical Laboratory Standard Institute (CLSI) guidelines M7-A9. Test articles were stored at room temperature prior to use, then dissolved in filtered sterile DMSO. Stock DMSO solutions were diluted further in Haemophilus Test Medium (HTM) to provide appropriate test concentrations. Cultures of H. influenzae ATCC 49247 were added in accordance with CLSI guidelines and plates incubated at 37° C. in air for 24 h. Endpoints were determined visually (and by spectrophotometer at 600 nm) and the minimum inhibitory concentration (MIC) defined as the lowest concentration of test articles resulting in complete inhibition of visible bacterial growth.

S. aureus ATCC 29213 = assay: MIC test according to CLSI M7-A9, S. aureus ATCC 29213; type: cell-based; details: Staphylococcus aureus, ATCC29213, CLSI M7-A9, CAMHB
Summary of the method: (§1)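 Per CLSI M7-A9, DMSO stocks diluted in cation-adjusted Mueller Hinton broth, plates incubated 24 h at 37 °C in air. MIC is the lowest concentration giving complete inhibition of visible growth, read visually and at 600 nm.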

S. aureus Newman = assay: MIC test according to CLSI M7-A9, S. aureus Newman; type: cell-based; details: Staphylococcus aureus, CLSI M7-A9, CAMHB, 24 h (Table 3), read-out: S. aureus ATCC Newman MIC
Summary of the method: as §1

S. aureus SgtB [1] = target: T1, S. aureus SgtB (Staphylococcus aureus, UniProt Q99T05); assay: Dose-dependent displacement of probe CMG121 from S. aureus SgtB by fluorescence polarization; type: binding; set-up: made in house
Experimental: (§2) I. Dose-Dependent Displacement of CMG121 from S. aureus SgtB by Fluorescence Polarization
(§3) A black 384 well plate (Corning NBS Low Volume No. 3820) was filled (10 μL per well) with an equilibrated solution containing 10 mM TRIS (pH=8.0), 100 mM NaCl, 75 nM CMG121, and 1.0-1.5 μM S. aureus SgtB (depending on protein batch). Due to presence of 8 mM CHAPS detergent in the buffer of the S. aureus SgtB stock, the final assay solution contains 100-160 μM CHAPS. Using an HP D300 Digital Dispenser, for each compound a 1/1 dilution series (12 wells) of the primary hit compound in DMSO (normalized to 1 μL with DMSO) was prepared and added to the aforementioned assay solution. The plate was incubated at 4° C. for 30 min and read with a Perkin Elmer EnVision microplate reader (FP-read out, excitation: 480 nm; emission: 535 nm).
(§4) FIGS. 10A-E show values of reduction of fluorescence polarization for exemplified compounds. […] In the primary assay, FP was read after 30 min at 4° C., compound concentration was ca. 100 μM, and 90% reduction in FP was threshold for scoring hits (Gampe et al., J. Am. Chem. Soc. 2013, 135 (10), 3776-3779; U.S. Provisional Patent Application, U.S. Ser. No. 61/621,229, filed on Apr. 6, 2012; International Application No. PCT/US2013/030800 filed on Mar. 13, 2013).
(§5) The values were determined in two independent experiments. IC50=10 μM; Hill slope: −0.92.

S. aureus NEI = assay: TEM imaging of S. aureus NE1 treated with compound; type: cell-based
Source text: FIGS. 7A and 7B show TEM imaging of S. aureus NEI treated with compound 1882L04.

S. aureus SgtB [2] = target: T1, S. aureus SgtB; details: read-out: IC50, in vitro inhibition of S. aureus SgtB; 50 nM SgtB, 14C-lipid II, 25 min at room temperature, two independent experiments
Experimental: In Vitro Inhibition of Polymerization of Lipid II by PGTs
(i) In Vitro Inhibition of S. aureus SgtB:
Then ^14C-labelled lipid II (1 μL, 40 μM, ^14C/^12C 1/3) was added and the polymerization reaction was allowed to proceed for 25 min at room temperature. The reaction was quenched with 10 μL of a solution of moenomycin (1 μM) in 10% triton-X reduced and the remaining lipid II was separated from peptidoglycan (PG) using paper strip chromatography (isobutyric acid/1M NH4OH 5/3). Using a scintillation counter the ratio of radioactivity in PG to total radioactivity was determined and plotted vs. inhibitor concentration. IC50 values were determined using the curve fitting program GraphPad Prism 5.0 (GraphPad Software, Inc.; La Jolla, Calif., USA).

S. aureus RN4220 [3] = details: S. aureus RN4220 grown with 65 ug/mL for 22 h, repeated
Experimental: A liquid culture of wild-type S. aureus RN4220 was grown up in the presence of 1882L04 (65 ug/mL) for 22 h. This culture was normalized to OD600=0.6, diluted 100×, and grown up in the presence of 1882L04 (65 ug/mL) and DMSO. The cultures obtained after 22 h were treated as mentioned before and grown up again.

S. aureus RN4220 [4] = assay: Growth (CFU) of S. aureus RN4220 in the presence of compound; type: cell-based; details: S. aureus RN4220, 1-6 h
MSSA Newman = assay: MIC test in TSB medium with MTT staining, MSSA Newman; type: cell-based, Staphylococcus aureus; details: TSB, 37° C., MTT staining after 22 h
Experimental: MIC Test (Methicillin Susceptible Staphylococcus aureus (MSSA Newman))
Overnight cultures of MSSA Newman were grown up in TSB medium at 37° C. The cultures obtained were normalized with TSB to OD600=0.6 and diluted 100-fold. 1.5 μL of a dilution series of Example Compounds in DMSO (100×, in duplicate), and the diluted bacterial culture (150 μL) was added to wells of a sterile, clear 96 well plate and incubated at 37° C.

S. aureus SgtB [5] = target: T1, S. aureus SgtB; assay: Michaelis-Menten kinetics of lipid II polymerization by S. aureus SgtB in the presence of 1882L04; type: biochemical; set-up: made in house
Experimental: (ii) Determination of KM and vmax for Polymerization of Lipid II by S. aureus SgtB in the Presence of 1882L04
The polymerization reaction was initiated by addition of radioactively labeled lipid II (1 μL, 100 μM, ^14C/^12C=1/3; for a final concentration of 10 μM=KM). […] This ratio was multiplied with the concentration of lipid II used to obtain the amount of lipid II in PG in μM. This value was devided by 1200 s to obtain the reaction rate v in μM/s, which was plotted vs. concentration of lipid II.

MSSA NE1 = assay: MIC test in TSB medium with MTT staining, MSSA NE1; type: cell-based, Staphylococcus aureus
Experimental: MIC Test (Methicillin Susceptible Staphylococcus aureus (MSSA Newman) and MSSA NE1)
Overnight cultures of MSSA Newman and MSSA NE1 were grown up in TSB medium at 37° C. The cultures obtained were normalized with TSB to O600=0.6 and diluted 100-fold. A sterile, clear 96 well plate was charged with 1.5 μL of a dilution series compound 1882L04 in DMSO (100×, in duplicate), and the diluted bacterial culture was added (150 μL). Moenomycin at a final concentration of 2.3 μM was used as positive control.

E. faecalis PBP2a = assay: In vitro inhibition of polymerization of 14C-lipid II by E. faecalis PBP2a; type: biochemical; details: 50 nM PBP2a, 25 min at room temperature
Experimental: (ii) In Vitro Inhibition of E. faecalis PBP2a
Solutions of the E. faecalis PBP2a (50 nM) in 50 mM HEPES (pH=7.5), 10 mM CaCl2, and 1000 U/min PenG (8 μL) were incubated with DMSO solutions containing the inhibitor of interest in different concentrations (1 μL) for 20 min. Then ^14C-labelled lipid II (1 μL, 40 μM, ^14C/^12C 1/3) was added and the polymerization reaction was allowed to proceed for 25 min at room temperature.

S. aureus ATCC 43300 = assay: MIC test according to CLSI M7-A9, S. aureus ATCC 43300; type: cell-based; details: Staphylococcus aureus, ATCC43300, CLSI M7-A9, CAMHB
Summary of the method: as §1

[6] = target: T2, S. aureus SgtB (SgtB ΔTM) (Staphylococcus aureus, UniProt Q99T05); assay: Dose-dependent displacement of probe CMG121 from S. aureus SgtB by fluorescence polarization; type: binding; details: 75 nM CMG121, 1.0-1.5 μM SgtB, pH 8.0, 30 min at 4° C., read-out: SgtB (FP, probe CMG121 displacement) IC50
T2 construct: SgtB ΔTM of S. aureus; made in house
Experimental: FIGS. 10A to 10E show dose-dependent displacement of probe CMG121 from S. aureus SgtB with exemplified compounds determined by fluorescence polarization.
All of the references are incorporated by reference herein. • SgtB ΔTM of S. aureus (referred to as “SgtB”), • PBP2a (A68-N728) of E. faecalis (referred to as “PBP2a”)
Probe compound CMG121 was prepared as previously described (Gampe et al., J. Am. Chem. Soc. 2013, 135 (10), 3776-3779; U.S. Provisional Patent Application Nos. 61/621,229 filed on Apr. 6, 2012).
as §2, §3, §4, §5

[7] = 24 h (Table 3), read-out: S. aureus ATCC 29213 MIC
[8] = 24 h (Table 2), read-out: S. aureus ATCC 43300 MIC at 24 h
[9] = 24 h (Table 2), read-out: S. aureus ATCC 29213 MIC at 24 h

Cc1ccc(Cc2c(=O)[nH]n3c(=S)[nH]c(-c4ccc(C(C)(C)C)cc4)nc23)cn1 [Example 112, 2-(4-tert-butylphenyl)-8-[(6-methylpyridin-3-yl)methyl]-4-sulfanylidene-3H,4H,6H,7H-pyrazolo[1,5-a][1,3,5]triazin-7-one]
MIC (H. influenzae ATCC 49247): 16 µg/mL (≈ 39.5 µM) | MIC (S. aureus ATCC 29213; [7]): 8 µg/mL (≈ 19.7 µM) | MIC (S. aureus Newman): 4 µg/mL (≈ 9.86 µM)

Cc1ccc(CSc2nc(-c3ccc(C(C)(C)C)cc3)nc3cc(=O)[nH]n23)cc1 [Entry 9]
IC50 (S. aureus SgtB [1]): 112 µM

CNc1nc(-c2ccc(C(C)(C)C)cc2)nc2cc(=O)[nH]n12 [Entry 16]
IC50 (S. aureus SgtB [1]): > 200 µM

Cc1cccc(OCCCSc2nc(-c3ccc(C(C)(C)C)cc3)nc3cc(=O)[nH]n23)c1C [1882L04]
Cell morphology by TEM (S. aureus NEI): growth defects | IC50 (S. aureus SgtB [2]): 97 µM | Development of resistance (S. aureus RN4220 [3]): became resistant | Type of antibacterial activity (number of CFUs) (S. aureus RN4220 [4]): bacteriostatic activity | MIC MSSA Newman (MSSA Newman): 125 µg/mL (≈ 270 µM) | IC50 (S. aureus SgtB [1]; displacement of 75 nM CMG121 from S. aureus SgtB, 30 min at 4° C., read-out: IC50 from FP Assay): 10 µM | Hill slope (S. aureus SgtB [1]; displacement of CMG121 from S. aureus SgtB, two independent experiments): −0.92 | Km (S. aureus SgtB [5]; c(1882L04)=50 μM): 18.2 µM | vmax for polymerization of lipid II by SgtB (S. aureus SgtB [5]; c(1882L04)=50 μM): 0.015 µM/s | Km (S. aureus SgtB [5]; c(1882L04)=100 μM): 20.9 µM | vmax for polymerization of lipid II by SgtB (S. aureus SgtB [5]; c(1882L04)=100 μM): 0.012 µM/s | Sensitization of MSSA NE1 to compound (MIC data) (MSSA NE1): sensitized | MIC MSSA NE1 (MSSA NE1; TSB, 37° C., MTT staining after 22 h): 8 µg/mL (≈ 17.3 µM) | IC50 (E. faecalis PBP2a): 337 µM

CC(C)(C)c1ccc(-c2nc(O)n3[nH]c(=O)cc3n2)cc1 [Entry 18]
IC50 (S. aureus SgtB [1]): 34 µM

O=c1[nH]n2c(=S)[nH]c(C34CC5CC(CC(C5)C3)C4)nc2c1Cc1ccccc1 [Example 121, 2-(adamantan-1-yl)-8-benzyl-4-sulfanylidene-3H,4H,6H,7H-pyrazolo[1,5-a][1,3,5]triazin-7-one]
MIC (H. influenzae ATCC 49247): 8 µg/mL (≈ 20.4 µM) | MIC (S. aureus ATCC 29213; [7]): 4 µg/mL (≈ 10.2 µM) | MIC (S. aureus Newman): 4 µg/mL (≈ 10.2 µM)

CC(C)(C)c1ccc(-c2nc(NCCCOC3CCCCC3)n3[nH]c(=O)cc3n2)cc1 [Example 31, 2-(4-tert-butylphenyl)-4-{[3-(cyclohexyloxy)propyl]amino}-6H,7H-pyrazolo[1,5-a][1,3,5]triazin-7-one]
MIC (H. influenzae ATCC 49247): 32 µg/mL (≈ 75.5 µM) | MIC (S. aureus ATCC 43300; [8]): 16 µg/mL (≈ 37.8 µM) | MIC (S. aureus ATCC 29213; [9]): 8 µg/mL (≈ 18.9 µM)

CC(C)(C)c1ccc(-c2nc(NCCNC3Cc4ccccc4C3)n3[nH]c(=O)cc3n2)cc1 [Example 90, 2-(4-tert-Butylphenyl)-4-({2-[(2,3-dihydro-1H-inden-2-yl)amino]ethyl}amino)-6H,7H-pyrazolo[1,5-a][1,3,5]triazin-7-one]
MIC (H. influenzae ATCC 49247): 16 µg/mL (≈ 36.2 µM) | MIC (S. aureus ATCC 43300; 24 h (Table 3), read-out: S. aureus ATCC 43300 MIC): 16 µg/mL (≈ 36.2 µM) | MIC (S. aureus ATCC 29213; [7]): 16 µg/mL (≈ 36.2 µM) | MIC (S. aureus Newman): 16 µg/mL (≈ 36.2 µM)

CC(C)(C)c1ccc(-c2nc(N)n3[nH]c(=O)cc3n2)cc1 [Entry 17]
IC50 (S. aureus SgtB [1]): > 200 µM

Cc1cccc(OCCCSc2nc(-c3ccc(C(C)(C)C)cc3)nc3cc(=O)[nH]n23)c1C [Compound 1882L04]
IC50 ([6]; Figure 5): 7 µM

CN1CCC(Nc2nc(-c3ccc(C(C)(C)C)cc3)nc3cc(=O)[nH]n23)CC1 [Example 19, 2-(4-tert-butylphenyl)-4-[(1-methylpiperidin-4-yl)amino]-6H,7H-pyrazolo[1,5-a][1,3,5]triazin-7-one]
MIC (H. influenzae ATCC 49247): 64 µg/mL (≈ 168 µM) | MIC (S. aureus ATCC 43300; [8]): 64 µg/mL (≈ 168 µM) | MIC (S. aureus ATCC 29213; [9]): 64 µg/mL (≈ 168 µM)

Cc1ccc(OCCCSc2nc(-c3ccc(C(C)(C)C)cc3)nc3cc(=O)[nH]n23)cc1C [Compound 1882F04]
IC50 ([6]; Figure 10F): 26 µM

Cc1ccc(C(C)C)c(OCCSc2nc(-c3ccccc3F)nc3cc(=O)[nH]n23)c1 [Compound 1882J21]
IC50 ([6]; Figure 10F): > 200 µM

Cc1ccc(-c2nc(SCCOc3ccccc3C)n3[nH]c(=O)cc3n2)cc1 [Compound 1882P19]
IC50 ([6]; Figure 10F): > 200 µM

COc1ccc(CNc2nc(-c3ccc(C(C)(C)C)cc3)nc3cc(=O)[nH]n23)cc1 [Entry 14]
IC50 (S. aureus SgtB [1]): > 200 µM

Cc1cc(OCCCNc2nc(-c3cc[n+]([O-])cc3)nc3cc(=O)[nH]n23)ccc1Cl [Example 126, 4-(4-{[3-(4-chloro-3-methylphenoxy)propyl]amino}-7-oxo-6H,7H-pyrazolo[1,5-a][1,3,5]triazin-2-yl)pyridin-1-ium-1-olate]
MIC (H. influenzae ATCC 49247): 1 µg/mL (≈ 2.34 µM)
